The text below walks through data of patent US12195469B2, “Compounds having PDE9A inhibitory activity, and pharmaceutical uses thereof” (KOREA RESEARCH INSTITUTE OF CHEMICAL TECHNOLOGY, priority 2018, dated 2025).

What is called inhibition is the share of the control response that was lost under treatment. Usually IC50 stands for the concentration needed to halve the response being measured.

The structures appear in SMILES notation.

In one assay the target is PDE9A (Homo sapiens (Human), UniProt O76083). As to the kind of experiment: PDE9A inhibition, fluorescence polarization assay (IMAP-FP screening express kit). It counts as biochemical. The note with it: 10 μM of the compound. On the procedure: The inhibitory activity of the representative compounds according to the present invention against phosphodiesterase 9A was tested based on the polarization assay (IMAP-FP screening express kit) provided by MDS (MDS Analytical Technologies, Sunyvale, CA, USA). As a buffer solution, a reaction solution (a reaction solution containing 0.01% Tween 20 provided by MDS was diluted 5 times, then 5 mM DTT is added) and a polarization detection solution (binding solution A and B provided by MDS were mixed at a ratio of 3:1 and IMAP binding reagent 1/600 was added) were prepared. 100 μM of the substrate (Fl-cGMP substrate; MDS) and 3.6 μg/ml of the enzyme PDE9A (ab54113; abcam) were prepared. 3.6 μg/ml PDE9A and 100 μM substrate were diluted to 20 ng/ml (final reaction concentration: 5 ng/ml) and 400 nM (final reaction concentration: 100 nM), respectively. The buffer solution used for all dilution and preparation processes was 1× reaction solution with 1 mM DTT added, and the polarization detection solution was used to induce polarization at the end.
Sequence of PDE9A (O76083 whole entry): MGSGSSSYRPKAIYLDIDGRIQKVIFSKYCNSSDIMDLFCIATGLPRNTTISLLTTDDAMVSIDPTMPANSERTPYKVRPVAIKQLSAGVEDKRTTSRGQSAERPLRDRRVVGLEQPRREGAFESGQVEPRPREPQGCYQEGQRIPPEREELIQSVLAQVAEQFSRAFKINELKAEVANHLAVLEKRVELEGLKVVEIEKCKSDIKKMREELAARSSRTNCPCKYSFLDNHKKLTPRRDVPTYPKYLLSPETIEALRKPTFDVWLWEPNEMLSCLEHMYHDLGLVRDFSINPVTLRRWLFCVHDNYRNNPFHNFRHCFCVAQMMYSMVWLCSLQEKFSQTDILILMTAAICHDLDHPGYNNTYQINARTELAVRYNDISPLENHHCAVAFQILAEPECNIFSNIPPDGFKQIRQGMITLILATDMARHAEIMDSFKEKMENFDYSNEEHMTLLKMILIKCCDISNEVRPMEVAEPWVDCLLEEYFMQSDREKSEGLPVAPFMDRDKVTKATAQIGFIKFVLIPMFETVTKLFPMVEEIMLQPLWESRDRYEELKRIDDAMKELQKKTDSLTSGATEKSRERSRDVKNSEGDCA
The prepared samples were dispensed on black microplates (Multiwell 384 well plates, #3573, Corning Life Sciences, Lowell, MA, USA) using a 16-channel pipette (multi 16-channel, Finnpipette, Thermo Scientific, Essex, UK). The total reaction volume per well is 20 μl. At this time, 10 μl of 2% DMSO, 5 μl of substrate solution, and 5 μl of reaction solution were used as a negative control, and 10 μl of 2% DMSO, 5 μl of substrate solution, and 5 μl of PDE9A solution were used as a positive control. As the experimental group, 10 μl of the compound prepared in Example, 5 μl of the substrate solution, and 5 μl of the PDE9A solution were used. After pretreatment between the compound and the enzyme was performed for about 10 minutes before the enzyme-substrate reaction, 5 μl of cGMP was added to induce the enzyme reaction. During the reaction, each compound, enzyme, and substrate occupied 50%, 25%, and 25% of the total volume, respectively, and they were prepared at high concentrations of 2, 4, and 4 times, respectively, immediately before addition. After the enzymatic reaction, it was shaken lightly for 1 minute and the enzyme reaction was induced at room temperature for 1 hour. Then, 60 μl of a polarization detection solution prepared in advance was added to induce polarization.
Nanoparticles composed of trivalent metal ions are mixed in the fluorescence detection solution, which combines with phosphoric acid expose by enzymatic reaction to increase the molecular weight and induce polarization. After leaving for 2 hours at room temperature, the polarization (Fluorescence Polarization, FP) value was measured using a multilabel counter (Envision, PerkinElmer, Turku, Finland) (emission wavelength: P-535 nm, S-535 nm, excitation wavelength: 480 nm), and the result was expressed as an IC50 value, which is the concentration of the compound that inhibited PDE9A by 50% in vitro (Table 2).
Background: Fluorescence polarisation rises when a labelled molecule tumbles more slowly, as on binding a larger partner.
With `O=c1[nH]c(SCc2nc3cc(Cl)c([N+](=O)[O-])cc3o2)nc2c1cnn2-c1ccccc1` [Example 31], testing at 10 µM gave an inhibition of 38.9%. On the same count and under the same terms, then `O=c1[nH]c(SCc2nc3cc(Cl)cc(Cl)c3o2)nc2c1cnn2-c1ccccc1` [Example 32, 6-(((5,7-dichlorobenzo[d]oxazol-2-yl)methyl)thio)-1-phenyl-1,5-dihydro-4H-pyrazolo[3,4-d]pyrimidin-4-one], with 27.7%; and `COc1ccc2nc(CSc3nc4c(cnn4-c4ccccc4)c(=O)[nH]3)oc2c1` [Example 35, 6-(((6-methoxybenzo[d]oxazol-2-yl)methyl)thio)-1-phenyl-1,5-dihydro-4H-pyrazolo[3,4-d]pyrimidin-4-one], with 83.6%.

Staying with this assay, now noted: Fl-cGMP substrate 100 nM, PDE9A 5 ng/ml, 1 hour at room temperature.
Regarding `O=c1[nH]c(SCc2nc3c([N+](=O)[O-])cccc3o2)nc2c1cnn2-c1ccccc1` [Example 30, 6-(((4-nitrobenzo[d]oxazol-2-yl)methyl)thio)-1-phenyl-1,5-dihydro-4H-pyrazolo[3,4-d]pyrimidin-4-one], the IC50 is 1720 nM.

As for `Cc1cc(C)c2oc(CSc3nc4c(cnn4-c4ccccc4)c(=O)[nH]3)nc2c1` [Example 33, 6-(((5,7-dimethylbenzo[d]oxazol-2-yl)methyl)thio)-1-phenyl-1,5-dihydro-4H-pyrazolo[3,4-d]pyrimidin-4-one], half-maximal inhibition (IC50) required 950 nM. Molecule `COc1ccc2oc(CSc3nc4c(cnn4-c4ccccc4)c(=O)[nH]3)nc2c1` [Example 34, 6-(((5-methoxybenzo[d]oxazol-2-yl)methyl)thio)-1-phenyl-1,5-dihydro-4H-pyrazolo[3,4-d]pyrimidin-4-one] yielded an IC50 of 120 nM. Regarding `O=c1[nH]c(SCc2nc3cc(C(F)(F)F)ccc3o2)nc2c1cnn2-c1ccccc1` [Example 36, 1-phenyl-6-(((5-(trifluoromethyl)benzo[d]oxazol-2-yl)methyl)thio)-1,5-dihydro-4H-pyrazolo[3,4-d]pyrimidin-4-one], half-maximal inhibition (IC50) was put at 34100 nM. `O=c1[nH]c(SCc2nc3ccc([N+](=O)[O-])cc3o2)nc2c1cnn2C1CCC(F)(F)CC1` [Example 37, 1-(4,4-difluorocyclohexyl)-6-(((6-nitrobenzo[d]oxazol-2-yl)methyl)thio)-1,5-dihydro-4H-pyrazolo[3,4-d]pyrimidin-4-one] had an IC50 of 74 nM. Same read-out and setting: the figure for `O=c1[nH]c(SCc2nc3cc([N+](=O)[O-])ccc3o2)nc2c1cnn2C1CCC(F)(F)CC1` [Example 38, 1-(4,4-difluorocyclohexyl)-6-(((5-nitrobenzo[d]oxazol-2-yl)methyl)thio)-1,5-dihydro-4H-pyrazolo[3,4-d]pyrimidin-4-one] is 45 nM; for `O=c1[nH]c(SCc2nc3c([N+](=O)[O-])cccc3o2)nc2c1cnn2C1CCC(F)(F)CC1` [Example 39, 1-(4,4-difluorocyclohexyl)-6-(((4-nitrobenzo[d]oxazol-2-yl)methyl)thio)-1,5-dihydro-4H-pyrazolo[3,4-d]pyrimidin-4-one] it is 77 nM; for `O=c1[nH]c(SCc2nc3cc(Cl)c([N+](=O)[O-])cc3o2)nc2c1cnn2C1CCC(F)(F)CC1` [Example 40, 6-(((5-chloro-6-nitrobenzo[d]oxazol-2-yl)methyl)thio)-1-(4,4-difluorocyclohexyl)-1,5-dihydro-4H-pyrazolo[3,4-d]pyrimidin-4-one] it is 1660 nM.

For the molecule `Cc1cccc2oc(CSc3nc4c(cnn4C4CCC(F)(F)CC4)c(=O)[nH]3)nc12` [Example 41, 1-(4,4-difluorocyclohexyl)-6-(((4-methylbenzo[d]oxazol-2-yl)methyl)thio)-1,5-dihydro-4H-pyrazolo[3,4-d]pyrimidin-4-one], inhibition was half-maximal at 22 nM (IC50). `CC(C)(C)c1ccc2oc(CSc3nc4c(cnn4C4CCC(F)(F)CC4)c(=O)[nH]3)nc2c1` [Example 42, 6-(((5-(tert-butyl)benzo[d]oxazol-2-yl)methyl)thio)-1-(4,4-difluorocyclohexyl)-1,5-dihydro-4H-pyrazolo[3,4-d]pyrimidin-4-one] gave an IC50 of 130 nM.
